Ends that are not written are not given here.
Experiments:
Type in all cases: in vivo, NOD-SCID mice (pHBV model)
[1] = test system: HBV DNA, Hepatitis B Virus; assay: Serum HBV DNA (qPCR) in pHBV model mice (Example 7); conditions: 8 mg/kg MLP delivery peptide without HBV RNAi triggers
Description: (§1) At day −42, 6 to 8 week old female NOD.CB17-Prkdscid/NcrCrl (NOD-SCID) mice were transiently transfected in vivo with MC-HBV1.3 by hydrodynamic tail vein injection (Yang P L et al. “Hydrodynamic injection of viral DNA: a mouse model of acute hepatitis B virus infection.” PNAS USA 2002 Vol. 99: p. 13825-13830). MC-HBV1.3 is a plasmid-derived minicircle that contains the same terminally redundant human hepatitis B virus sequence HBV1.3 as in the HBV1.3.32 transgenic mice (GenBank accession #V01460) (Guidotti L G et al. “High-level hepatitis B virus replication in transgenic mice. J Virol 1995 Vol. 69, p 6158-6169.). […] At day −21, three weeks post transfection, Hepatitis B surface antigen (HBsAg) HBsAg expression levels in serum were measured by ELISA and the mice were grouped according to average HBsAg expression levels. […]
(§2) At various times, before and after administration of MLP delivery peptide+HBV RNAi triggers, isotonic glucose, or MLP delivery peptide alone, serum HBsAg, serum HBV DNA, or liver HBV RNA were measured. […]
The number of copies of HBV genomes in DNA isolated from the pHBV mouse model serum was determined by qPCR. […]
qPCR assays were performed on a 7500 Fast or StepOne Plus Real-Time PCR system (Life Technologies). […] Quantitations of HBV DNA and recovery control plasmid were determined by qPCR reactions performed in triplicate. […]

[2] = test system: Hepatitis B surface antigen (HBsAg), Hepatitis B Virus; assay: Serum HBsAg (ELISA) in pHBV model mice after IV MLP delivery peptide+HBV RNAi triggers (Example 7); conditions: 8 mg/kg MLP delivery peptide without HBV RNAi triggers
Description: as §1, §2
Serum was collected and diluted 10 to 2000-fold in PBS containing 5% nonfat dry milk. […] HBsAg levels were determined with a GS HBsAg EIA 3.0 kit (Bio-Rad Laboratories, Inc., Redmond, Wash.) as described by the manufacturer. […]

[3] = Clinical chemistry (liver and renal function) in pHBV model mice; conditions: day 2 (24 hours post-injection) vs day −1
Method: Clinical chemistry markers in mouse serum were measured using a COBAS Integra 400 (Roche Diagnostics, Indianapolis, Ind.) chemical analyzer according to the manufacturer's instructions.
Liver and renal functions were evaluated on day −1 (pre-injection) and day 2 (24 hours post-injection).

Substance: MLP delivery peptide: MLP SEQ ID NO: 650 (GIL MLP, L-form) reversibly masked with CDM-NAG (LIGAILKVLATGLPTLISWIKNKRKQ; also: reversibly masked with CDM-NAG)
- HBV DNA levels in serum [1]: comparable to levels in mice that received a single injection of isotonic glucose
- HBsAg levels in serum [2]: comparable to levels in mice that received a single injection of isotonic glucose
- evidence of toxicity [3]: nor was there any evidence of toxicity

From US10130651B2, “RNAi Therapy for Hepatitis B Virus Infection” (Arrowhead Pharmaceuticals, Inc., priority 2015, dated 2018)
